The text below walks through data of US20190225985A1, “Enhancing Bacillus Thuringiensis CRY Insecticidal Activity With a Chaperone” (Universidad Nacional Autónoma de México, priority 2016, published 2019).

In one data set the test system is Hsp90. The data set is described as follows: ELISA binding assay of Hsp90 to Cry toxins. More on the design: species or system Plutella xylostella. The conditions noted are these: for binding of Hsp90 to toxin (ELISA): coated protoxin, serial dilutions of Hsp90, FIG. 4A-E. The method, then:
(§1) The binding of Hsp90 or Hsp70 to Cry1Ab and Cry1AbMod protoxins was analyzed by ELISA binding assays. […] More specifically, 50 μl of 40 nM of each protoxin in binding buffer (100 mM carbonate pH 9.5) was used to coat ELISA 96 well plates. ELISA plates were incubated overnight at 4° C. After removing the protoxin solution, the plate was blocked with blocking-buffer (1% BSA in PBS 1X) for 1 hr at room temperature. […] The plate was washed three times with washing buffer (PBS 1X) and then 50 μl of a 1/10,000 dilution of anti-polyHistidine-Peroxidase conjugate (Sigma-Aldrich) was added to each well and incubated for 1 hr at 30° C. The reaction was developed with 50 μl of ortophenylenediamine in a substrate buffer (100 mM K3PO4; pH 5) in a final concentration of 1 mg/ml and […] of peroxide oxide. The reaction was stopped by adding 25 μl of HCl, 6N. The plates were read on microtiter plate reader at OD 490 nm.
(§2) Data represent means of 8 wells and each experiment was repeated two times. The statistical calculations (mean and standard deviation) and graphics were performed using the Microsoft Excel Program.
(An ELISA detects its analyte on a solid surface through an enzyme-linked reagent.)

Data set [1] concerns M. sexta brush border membrane vesicles (BBMV). The data set is described as follows: Oligomerization of Cry1Ab with brush border membrane vesicles in the presence of Hsp90, Western blot. Type of data set: biochemical. Here is the method:
Oligomerization of Cry1Ab. Brush border membrane vesicles (BBMV) were prepared using M. sexta midgut tissues from third instar larvae by the magnesium precipitation method without protease inhibitors^21 and suspended in 50 mM Na2CO3, pH 9, and stored at −70° C. until used. The BBMV protein concentrations were determined with the Lowry DC protein assay (BioRad, Hercules, Calif.) using bovine serum albumin as a standard. Fifteen μg or 30 μg of Hsp90 were incubated with 1 μg Cry1Ab toxin or protoxin in the presence of Hsp90 buffer. Control samples contained Cry1Ab proteins without Hsp90. Cry1Ab oligomerization was analyzed after incubation of 1 μg of Cry1Ab toxin or protoxin with 10 μg of BBMV protein for 1 h at 37° C. in a total volume of […] alkaline buffer, pH 10.5. BBMV were recovered by a 30 min centrifugation at 60,000 rpm at 4° C. The pellet was washed once with 100 μl of alkaline buffer by centrifugation, and suspended in 60 μl of the same buffer. Laemmli sample buffer 4X was added and the sample was incubated three min at 50° C. Samples were separated in 8% SDS-PAGE, electro transferred to PVDF membrane and Cry1Ab proteins were detected by Westernblot as described above.

Data set [2] relates to Plutella xylostella larvae. Type of data set: in vivo. Conditions: for effect of Hsp90 on toxicity: protoxin at about 10% mortality, increasing Hsp90, FIG. 1. The method, then: The hsp90 and hsp70 genes from the lepidopteran insect Plutella xylostella and the GroEL gene from Alcaligenes faecalis were cloned into an expression vector for production in E. coli cells. P. xylostella is a pest of cruciferous crops worldwide, is susceptible to Cry1A toxins and has evolved resistance to Cry1Ac and Cry1Ab in field conditions^18. To determine the effect of Hsp90, Hsp70 or GroEL on Cry1Ab and Cry1Ac toxicity, bioassays were performed against P. xylostella larvae using a protoxin concentration that would produce around 10% mortality in the presence of increasing amounts of Hsp90, Hsp70 or GroEL.
Bioassays were performed with 24 third instar larvae of P. xylostella using 24 wells plates. Larval diet was surface contaminated with different concentrations of Cry1A protoxin plus Hsp90 or Hsp70 or protoxin alone without any chaperone. The samples containing protoxin and Hsp90 were previously incubated for 30 min at 37° C. in Hsp90 buffer (1 mM Mg, 1 mMATP, in PBS1X). Each experiment was performed in triplicate (72 larvae per treatment). Mortality was assessed after 7 days. The statistical calculations (mean and standard deviation) and graphics were performed using the Microsoft Excel Program. Negative control diet was surface contaminated with the highest Hsp90 concentration without Cry1A protoxin to test the possible toxic effect of the protein or the buffer itself.
In the case where the LC50 was calculated, increasing concentrations of protoxin plus Hsp90 (in the protein relation indicated in the table) was used to surface contaminate diet in 24-well plates. These experiments were performed in triplicate. Mortality was assessed after 7 days and the effective dose was calculated using Probit analysis (Polo-PC LeOra Software).

A further data set deals with Hsp70. In words: ELISA binding assay of Hsp70 to Cry toxins. The conditions noted are these: coated protoxin, different concentrations of Hsp70, FIG. 5. More on the design: species or system Plutella xylostella. Here is the method:
as §1, §2

The subject of data set [3] is Plutella xylostella larvae. Conditions: soluble protoxin; taken from reference 16; cited from earlier work.
The mark [4] stands for this setting: excess of 500 μg per well of Hsp90.

Read-outs that look alike come from different tables or passages of the source.

Sequence of Hsp90 (as listed by the source): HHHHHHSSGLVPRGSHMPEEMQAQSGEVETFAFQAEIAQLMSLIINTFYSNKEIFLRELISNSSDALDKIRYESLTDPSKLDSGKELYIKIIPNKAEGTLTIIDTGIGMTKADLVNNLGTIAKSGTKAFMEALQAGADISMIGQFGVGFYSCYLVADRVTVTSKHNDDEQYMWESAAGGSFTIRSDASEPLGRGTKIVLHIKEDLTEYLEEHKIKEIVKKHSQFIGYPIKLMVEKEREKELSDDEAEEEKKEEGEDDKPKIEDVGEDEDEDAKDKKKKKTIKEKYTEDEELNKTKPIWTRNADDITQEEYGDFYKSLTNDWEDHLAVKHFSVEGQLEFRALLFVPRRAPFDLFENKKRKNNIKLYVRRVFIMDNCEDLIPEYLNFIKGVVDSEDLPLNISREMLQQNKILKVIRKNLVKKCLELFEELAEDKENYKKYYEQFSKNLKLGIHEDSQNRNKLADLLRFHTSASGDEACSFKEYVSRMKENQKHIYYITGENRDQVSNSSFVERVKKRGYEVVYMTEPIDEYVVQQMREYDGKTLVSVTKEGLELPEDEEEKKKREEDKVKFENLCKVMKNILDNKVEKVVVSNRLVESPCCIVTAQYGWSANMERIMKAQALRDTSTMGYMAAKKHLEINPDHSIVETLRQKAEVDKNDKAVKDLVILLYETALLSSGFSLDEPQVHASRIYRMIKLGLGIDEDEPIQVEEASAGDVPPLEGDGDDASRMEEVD
Sequence of Hsp70 (as listed by the source): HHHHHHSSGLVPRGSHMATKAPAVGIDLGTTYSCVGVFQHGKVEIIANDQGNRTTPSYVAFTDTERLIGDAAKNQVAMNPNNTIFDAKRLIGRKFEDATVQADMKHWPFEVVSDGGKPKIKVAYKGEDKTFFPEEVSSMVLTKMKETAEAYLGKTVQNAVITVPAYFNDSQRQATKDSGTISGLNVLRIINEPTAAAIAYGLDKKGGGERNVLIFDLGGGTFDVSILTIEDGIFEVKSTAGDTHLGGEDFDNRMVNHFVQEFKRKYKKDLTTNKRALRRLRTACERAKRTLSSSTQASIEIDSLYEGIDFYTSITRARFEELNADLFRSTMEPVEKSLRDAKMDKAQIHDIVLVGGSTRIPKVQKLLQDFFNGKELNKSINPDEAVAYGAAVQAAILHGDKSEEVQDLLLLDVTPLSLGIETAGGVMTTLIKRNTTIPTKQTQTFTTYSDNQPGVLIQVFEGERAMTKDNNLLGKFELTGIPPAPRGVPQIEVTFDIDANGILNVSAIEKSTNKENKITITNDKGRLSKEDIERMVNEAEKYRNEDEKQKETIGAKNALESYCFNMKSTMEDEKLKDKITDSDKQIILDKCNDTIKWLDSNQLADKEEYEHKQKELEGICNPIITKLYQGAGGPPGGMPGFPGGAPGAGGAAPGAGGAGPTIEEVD

For orientation: mortality means the percentage killed. Regarding Cry1Ab, the “binding of Hsp90 to toxin (ELISA)” value in the data set on Hsp90 is listed as “bound”. In addition, the “yield of the 250 kDa Cry1Ab oligomer” value in data set [1] (from Cry1Ab protoxin) and in data set [1] (from Cry1Ab toxin) was “significantly enhanced” each time. Moreover, the mortality in data set [2] (200 ng per well of Hsp90) is on record as 80%; in data set [2] (setting [4]) it was 100%. Moreover, the “effect of Hsp90 on toxicity” value in data set [2] is “enhanced in an Hsp90 concentration dependent manner”. Further, in the data set with Hsp70, the “binding of Hsp70 to toxin (ELISA)” value is “bound”. Also, the LC50 in data set [3] is recorded as 4.69 ng/well.
Take Cry1Ac: the “binding of Hsp90 to Cry1Ac” value with Hsp90 (100 nM Hsp90, absence of ATP (FIG. 4F lane 2)) is reported as “significantly reduced”. For the same substance, in the data set on Hsp90, the “binding of Hsp90 to toxin (ELISA)” value was “bound”. Moreover, the mortality turned out to be 80% in data set [2] (100 ng per well of Hsp70); 80% in data set [2] (200 ng per well of Hsp90); 80% in data set [2] (GroEL 100 ng per well); 100% in data set [2] (excess of 200 μg per well of GroEL); 100% in data set [2] (excess of 200 μg per well of Hsp70); 100% in data set [2] (setting [4]). The “effect of GroEL on toxicity” value in data set [2] (increasing GroEL, FIG. 3) was “enhanced in concentration dependent manner”. Further, the “effect of Hsp70 on toxicity” value in data set [2] (increasing Hsp70, FIG. 2) is listed as “enhanced in an Hsp70 concentration dependent manner”. The “effect of Hsp90 on toxicity” value in data set [2] is reported as “enhanced in an Hsp90 concentration dependent manner”. In the data set with Hsp70, the “binding of Hsp70 to toxin (ELISA)” value is “bound”. Moreover, in data set [3], the LC50 is recorded as 0.71 ng/well.
